Measured values reported in patent publication US8685977B2, “Chemical compounds” (Pfizer Limited, priority 2010, dated 2014).

These molecules were tested against T1, Nav1.7 (or SCN9A) channel (Homo sapiens, UniProt Q15858) (assay: Nav1.7 PatchXpress 7000 automated electrophysiology assay (HEK cells stably expressing hSCN9A)). Settings: voltage-clamped at V1/2 of inactivation, read-out: Nav1.7 EIC50.
T1 construct: expressed in transfected cells
T1 sequence (Q15858 whole entry): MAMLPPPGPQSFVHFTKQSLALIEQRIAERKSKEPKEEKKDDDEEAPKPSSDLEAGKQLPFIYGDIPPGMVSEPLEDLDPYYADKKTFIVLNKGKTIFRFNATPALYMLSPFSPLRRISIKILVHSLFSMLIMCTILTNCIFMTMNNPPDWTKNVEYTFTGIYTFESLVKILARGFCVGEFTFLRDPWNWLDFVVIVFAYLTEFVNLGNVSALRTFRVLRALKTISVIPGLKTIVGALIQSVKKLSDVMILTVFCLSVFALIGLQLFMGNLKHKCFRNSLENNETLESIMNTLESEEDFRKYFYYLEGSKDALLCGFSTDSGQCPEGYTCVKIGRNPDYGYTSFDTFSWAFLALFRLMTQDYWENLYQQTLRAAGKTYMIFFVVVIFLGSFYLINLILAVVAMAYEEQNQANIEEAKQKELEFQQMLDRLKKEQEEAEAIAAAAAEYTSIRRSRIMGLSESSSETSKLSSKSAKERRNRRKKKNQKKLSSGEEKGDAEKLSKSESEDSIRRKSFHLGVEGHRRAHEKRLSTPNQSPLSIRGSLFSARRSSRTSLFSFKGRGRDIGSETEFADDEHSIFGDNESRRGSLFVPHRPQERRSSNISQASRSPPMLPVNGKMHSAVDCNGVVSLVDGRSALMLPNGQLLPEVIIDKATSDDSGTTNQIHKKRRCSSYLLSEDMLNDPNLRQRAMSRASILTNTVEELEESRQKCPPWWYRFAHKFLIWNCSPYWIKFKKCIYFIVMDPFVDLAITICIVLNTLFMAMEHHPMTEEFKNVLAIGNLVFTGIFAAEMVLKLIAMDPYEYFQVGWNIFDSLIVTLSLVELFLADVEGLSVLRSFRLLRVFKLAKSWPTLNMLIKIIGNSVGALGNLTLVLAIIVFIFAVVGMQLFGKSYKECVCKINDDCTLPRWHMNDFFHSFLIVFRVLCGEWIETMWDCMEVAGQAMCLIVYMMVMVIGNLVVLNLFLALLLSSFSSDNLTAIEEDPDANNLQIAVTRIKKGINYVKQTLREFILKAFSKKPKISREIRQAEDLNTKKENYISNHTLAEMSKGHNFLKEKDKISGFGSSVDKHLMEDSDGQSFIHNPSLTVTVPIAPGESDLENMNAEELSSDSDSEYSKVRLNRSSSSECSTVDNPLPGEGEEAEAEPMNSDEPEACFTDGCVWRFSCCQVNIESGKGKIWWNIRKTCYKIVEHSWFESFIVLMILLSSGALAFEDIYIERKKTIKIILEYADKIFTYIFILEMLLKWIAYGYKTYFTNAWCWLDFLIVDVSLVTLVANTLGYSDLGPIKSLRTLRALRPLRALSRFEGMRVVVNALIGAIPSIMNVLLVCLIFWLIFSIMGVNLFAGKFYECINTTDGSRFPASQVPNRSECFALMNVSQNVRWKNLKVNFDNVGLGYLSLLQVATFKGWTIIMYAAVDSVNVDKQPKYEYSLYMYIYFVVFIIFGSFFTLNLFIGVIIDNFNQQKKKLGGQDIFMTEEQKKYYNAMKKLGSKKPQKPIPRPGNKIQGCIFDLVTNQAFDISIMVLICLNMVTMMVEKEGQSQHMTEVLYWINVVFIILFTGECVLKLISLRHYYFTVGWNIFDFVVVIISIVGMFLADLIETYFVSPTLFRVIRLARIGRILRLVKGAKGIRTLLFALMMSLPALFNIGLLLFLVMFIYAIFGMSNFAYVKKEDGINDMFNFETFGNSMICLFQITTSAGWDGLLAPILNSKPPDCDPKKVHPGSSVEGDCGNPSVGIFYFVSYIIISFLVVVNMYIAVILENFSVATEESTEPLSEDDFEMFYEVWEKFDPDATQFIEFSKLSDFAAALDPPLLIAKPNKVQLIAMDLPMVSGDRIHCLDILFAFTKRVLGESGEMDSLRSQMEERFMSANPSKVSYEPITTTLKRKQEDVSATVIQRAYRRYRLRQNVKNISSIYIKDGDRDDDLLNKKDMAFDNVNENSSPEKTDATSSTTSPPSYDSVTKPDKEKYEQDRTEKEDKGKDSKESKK
Assay type: cell-based
Outline: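 Automated whole-cell clamp (PatchXpress) of HEK cells stably expressing hSCN9A, at 22-24 °C, in extracellular buffer at pH 7.4. Cells were held at the measured V1/2 of inactivation, then stepped to 0 mV for 20 ms. Single-concentration % inhibition gave EIC50 = concentration × (100 − %inhibition)/%inhibition, excluding <20% or >80%.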
`CS(=O)(=O)NC(=O)c1cc(Cl)c(Oc2ccc(C(F)(F)F)cc2-c2ccnnc2)cc1F` [Example 313, 5-chloro-2-fluoro-N-(methylsulfonyl)-4-[2-pyridazin-4-yl-4-(trifluoromethyl)phenoxy]benzamide] showed an IC50 of 9.9 µM.
`COc1ccc(Oc2ccc(C(=O)NS(C)(=O)=O)cc2)c(F)c1F` [Example 196, 4-(2,3-difluoro-4-methoxyphenoxy)-N-(methylsulfonyl)benzamide] gave an IC50 of 11 µM.
Work on `Cc1ccc(F)c(Oc2ccc(C(=O)NS(C)(=O)=O)cc2)c1` [Example 205, 4-(2-fluoro-5-methylphenoxy)-N-(methylsulfonyl)benzamide] yielded an IC50 of 15 µM.
For `CS(=O)(=O)NC(=O)c1cc(F)c(Oc2ccc(Cl)cc2)cc1F` [Example 129, 4-(4-chlorophenoxy)-2,5-difluoro-N-(methylsulfonyl)benzamide], the IC50 was 1.3 µM.
`CS(=O)(=O)NC(=O)c1cc(Cl)c(Oc2ccc(Cl)c(OC(F)F)c2)cc1F` [Example 48, 5-chloro-4-[4-chloro-3-(difluoromethoxy)phenoxy]-2-fluoro-N-(methylsulfonyl)benzamide] showed an IC50 of 0.21 µM.
With `COc1cc(Cl)ccc1Oc1cc(F)c(C(=O)NS(C)(=O)=O)cc1F` [Example 47, 4-(4-chloro-2-methoxyphenoxy)-2,5-difluoro-N-(methylsulfonyl)benzamide] the IC50 was 4 µM.
Molecule `Cc1cc(Oc2ccc(C(=O)NS(C)(=O)=O)cc2)ccc1Cl` [Example 170, 4-(4-chloro-3-methylphenoxy)-N-(methylsulfonyl)benzamide] has an IC50 of 1.9 µM.
`CCOc1ccccc1Oc1cc(F)c(C(=O)NS(C)(=O)=O)cc1Cl` [Example 288, 5-chloro-4-(2-ethoxyphenoxy)-2-fluoro-N-(methylsulfonyl)benzamide] was tested, and the IC50 was 2 µM.
`Cc1cc(C(=O)NS(C)(=O)=O)ccc1Oc1ccc(F)cc1` [Example 237, 4-(4-fluorophenoxy)-3-methyl-N-(methylsulfonyl)benzamide] showed an IC50 of 2.5 µM.
`CS(=O)(=O)NC(=O)c1ccc(Oc2cc(F)cc(F)c2)cc1` [Example 192, 4-(3,5-difluorophenoxy)-N-(methylsulfonyl)benzamide] was tested, and the IC50 was 14 µM.
`CS(=O)(=O)NC(=O)c1ccc(Oc2ccccc2F)cc1` [Example 171, 4-(2-fluorophenoxy)-N-(methylsulfonyl)benzamide] was tested, and the IC50 was over 10 µM.
With `Cc1cc(F)ccc1Oc1ccc(C(=O)NS(C)(=O)=O)cc1` [Example 201, 4-(4-fluoro-2-methylphenoxy)-N-(methylsulfonyl)benzamide] the IC50 was 20 µM.
For `Cc1cc(Oc2cc(F)c(C(=O)NS(C)(=O)=O)cc2F)ccc1F` [Example 145, 2,5-difluoro-4-(4-fluoro-3-methylphenoxy)-N-(methylsulfonyl)benzamide], the IC50 was 1.2 µM.
`COc1cc(C)ccc1Oc1ccc(C(=O)NS(C)(=O)=O)cc1` [Example 189, 4-(2-methoxy-4-methylphenoxy)-N-(methylsulfonyl)benzamide] was tested, and the IC50 was over 10 µM.
Molecule `CCOc1cccc(Oc2cc(F)c(C(=O)NS(C)(=O)=O)cc2Cl)c1` [Example 298, 5-chloro-4-(3-ethoxyphenoxy)-2-fluoro-N-(methylsulfonyl)benzamide] has an IC50 of 0.2 µM.
With `COc1cc(Oc2ccc(Cl)c(C)c2)ccc1C(=O)NS(C)(=O)=O` [Example 231, 4-(4-chloro-3-methylphenoxy)-2-methoxy-N-(methylsulfonyl)benzamide] the IC50 was 3.9 µM.
`Cn1nccc1-c1cc(Cl)ccc1Oc1cc(F)c(C(=O)NS(C)(=O)=O)cc1Cl` [Example 80, 5-chloro-4-[4-chloro-2-(1-methyl-1H-pyrazol-5-yl)phenoxy]-2-fluoro-N-(methylsulfonyl)benzamide] was tested, and the IC50 was over 3 µM.
Work on `CS(=O)(=O)NC(=O)c1ccc(Cc2ccc(Cl)c(Cl)c2)cc1` [Example 315, 4-(3,4-Dichlorobenzyl)-N-(methylsulfonyl)benzamide] yielded an IC50 of 1.5 µM.
With `CS(=O)(=O)NC(=O)c1ccc(Oc2ccccc2C(F)(F)F)c(Cl)c1` [Example 278, 3-chloro-N-(methylsulfonyl)-4-[2-(trifluoromethyl)phenoxy]benzamide] the IC50 was 6.6 µM.
Work on `CS(=O)(=O)NC(=O)c1cc(F)c(Oc2ccc(C#N)c(Cl)c2)cc1F` [Example 95, 4-(3-chloro-4-cyanophenoxy)-2,5-difluoro-N-(methylsulfonyl)benzamide] yielded an IC50 of over 3 µM.
Molecule `COc1cc(Oc2cccc(Cl)c2)ccc1C(=O)NS(C)(=O)=O` [Example 213, 4-(3-chlorophenoxy)-2-methoxy-N-(methylsulfonyl)benzamide] has an IC50 of over 3 µM.
Molecule `Cc1cc(C)cc(Oc2ccc(C(=O)NS(C)(=O)=O)cc2)c1` [Example 174, 4-(3,5-dimethylphenoxy)-N-(methylsulfonyl)benzamide] has an IC50 of 20 µM.
In the case of `COc1cc(C(=O)NS(C)(=O)=O)ccc1Oc1ccc(Cl)c(Cl)c1` [Example 10, 4-(3,4-dichlorophenoxy)-3-methoxy-N-(methylsulfonyl)benzamide], the IC50 is reported as 0.97 µM.
For `CCc1cc(F)ccc1Oc1ccc(C(=O)NS(C)(=O)=O)c(F)c1` [Example 19, 4-(2-ethyl-4-fluorophenoxy)-2-fluoro-N-(methylsulfonyl)benzamide], the IC50 was over 1 µM.
`CS(=O)(=O)NC(=O)c1ccc(Oc2ccc(Cl)cc2)cc1` [Example 24, 4-(4-chlorophenoxy)-N-(methylsulfonyl)benzamide] gave an IC50 of 5.7 µM.
`CS(=O)(=O)NC(=O)c1cc(F)c(Oc2cccc(Cl)c2Cl)cc1F` [Example 87, 4-(2,3-dichlorophenoxy)-2,5-difluoro-N-(methylsulfonyl)benzamide] showed an IC50 of 6.9 µM.
`COc1cc(Cl)cc(Oc2cc(F)c(C(=O)NS(C)(=O)=O)cc2F)c1` [Example 144, 4-(3-chloro-5-methoxyphenoxy)-2,5-difluoro-N-(methylsulfonyl)benzamide] gave an IC50 of 2.3 µM.
In the case of `CS(=O)(=O)NC(=O)c1cc(F)c(Oc2ccc(F)cc2Cl)cc1F` [Example 120, 4-(2-chloro-4-fluorophenoxy)-2,5-difluoro-N-(methylsulfonyl)benzamide], the IC50 is reported as over 3 µM.
`COc1cc(C(=O)NS(C)(=O)=O)ccc1Cc1ccc(Cl)c(Cl)c1` [Example 322, 4-(3,4-dichlorobenzyl)-3-methoxy-N-(methylsulfonyl)benzamide] was tested, and the IC50 was over 3 µM.
Work on `COc1c(C(=O)NS(C)(=O)=O)ccc(Oc2cccc(Cl)c2)c1F` [Example 225, 4-(3-chlorophenoxy)-3-fluoro-2-methoxy-N-(methylsulfonyl)benzamide] yielded an IC50 of 3.3 µM.
Work on `COc1ccc(Cl)c(Oc2ccc(C(=O)NS(C)(=O)=O)cc2)c1` [Example 194, 4-(2-chloro-5-methoxyphenoxy)-N-(methylsulfonyl)benzamide] yielded an IC50 of over 10 µM.
In the case of `CCc1cc(Cl)ccc1Oc1cc(F)c(C(=O)NS(C)(=O)=O)cc1F` [Example 3, 4-(4-Chloro-2-ethylphenoxy)-2,5-difluoro-N-(methylsulfonyl)benzamide], the IC50 is reported as 1.7 µM.
`CS(=O)(=O)NC(=O)c1cc(F)c(Oc2c(F)cccc2F)cc1F` [Example 96, 4-(2,6-difluorophenoxy)-2,5-difluoro-N-(methylsulfonyl)benzamide] was tested, and the IC50 was over 3 µM.
`COc1ccc(Cl)cc1Oc1cc(F)c(C(=O)NS(C)(=O)=O)cc1F` [Example 67, 4-(5-chloro-2-methoxyphenoxy)-2,5-difluoro-N-(methylsulfonyl)benzamide] showed an IC50 of 5 µM.
In the case of `CCOc1cc(C)ccc1Oc1cc(F)c(C(=O)NS(C)(=O)=O)cc1F` [Example 148, 4-(2-ethoxy-4-methylphenoxy)-2,5-difluoro-N-(methylsulfonyl)benzamide], the IC50 is reported as over 1 µM.
With `Cc1ccc(Cl)cc1Oc1cc(F)c(C(=O)NS(C)(=O)=O)cc1F` [Example 133, 4-(5-chloro-2-methylphenoxy)-2,5-difluoro-N-(methylsulfonyl)benzamide] the IC50 was over 3 µM.
With `CS(=O)(=O)NC(=O)c1ccc(Oc2ccccc2)c(Cl)c1` [Example 252, 3-chloro-N-(methylsulfonyl)-4-phenoxybenzamide] the IC50 was 1.2 µM.
With `CS(=O)(=O)NC(=O)c1ccc(Oc2ccc(OC(F)(F)F)cc2)cc1` [Example 168, N-(methylsulfonyl)-4-[4-(trifluoromethoxy)phenoxy]benzamide] the IC50 was 1.6 µM.
Molecule `CS(=O)(=O)NC(=O)c1ccc(Oc2cccc(C(F)(F)F)c2)c(Cl)c1` [Example 266, 3-chloro-N-(methylsulfonyl)-4-[3-(trifluoromethyl)phenoxy]benzamide] has an IC50 of 0.27 µM.
Molecule `CS(=O)(=O)NC(=O)c1ccc(Oc2ccc(Cl)c(Cl)c2)cc1F` [Example 28, 4-(3,4-dichlorophenoxy)-2-fluoro-N-(methylsulfonyl)benzamide] has an IC50 of 0.86 µM.
In the case of `Cc1ccc(Cl)cc1Oc1ccc(C(=O)NS(C)(=O)=O)cc1` [Example 177, 4-(5-chloro-2-methylphenoxy)-N-(methylsulfonyl)benzamide], the IC50 is reported as 16 µM.
`CS(=O)(=O)NC(=O)c1ccc(Oc2ccc(F)c(Cl)c2)cc1` [Example 200, 4-(3-chloro-4-fluorophenoxy)-N-(methylsulfonyl)benzamide] showed an IC50 of 8.1 µM.
For `COc1cccc(Oc2ccc(C(=O)NS(C)(=O)=O)cc2C#N)c1` [Example 277, 3-cyano-4-(3-methoxyphenoxy)-N-(methylsulfonyl)benzamide], the IC50 was 5.6 µM.
`CS(=O)(=O)NC(=O)c1ccc(Oc2ccccc2Cl)c(Cl)c1` [Example 248, 3-chloro-4-(2-chlorophenoxy)-N-(methylsulfonyl)benzamide] gave an IC50 of 1.7 µM.
`CS(=O)(=O)NC(=O)c1cc(F)c(Oc2cccc(OC(F)(F)F)c2)cc1F` [Example 124, 2,5-difluoro-N-(methylsulfonyl)-4-[3-(trifluoromethoxy)phenoxy]benzamide] showed an IC50 of 0.49 µM.
`CS(=O)(=O)NC(=O)c1c(F)cc(Oc2ccc(Cl)c(C(F)(F)F)c2)c(F)c1F` [Example 32, 4-(4-chloro-3-(trifluoromethyl)phenoxy)-2,3,6-trifluoro-N-(methylsulfonyl)benzamide] gave an IC50 of over 1 µM.
In the case of `CS(=O)(=O)NC(=O)c1ccc(Oc2cccc(C(F)(F)F)c2)cc1` [Example 163, N-(methylsulfonyl)-4-[3-(trifluoromethyl)phenoxy]benzamide], the IC50 is reported as 12 µM.
